The subject of this series is rodent lifetime carcinogenesis bioassay, tumor incidence TD50. As to the kind of experiment: carcinogenic potency in animals, long-term in vivo studies, CPDB compilation (AID 1745844).

Activity calls are given as the source filed them. How the calls were made is not given here.

For orientation: TD50 means the dose at which the toxic effect under study appears in half of the subjects.

`CCCC/C=N/N(C)C=O`: the TD50 (mouse, strain Swiss albino, females, by gavage, site: liver, lesion: hepatoma, benign, dosed 52 weeks, study length 144 weeks) is 11.8 mg/kg/day; the TD50 (mouse, strain Swiss albino, females, by gavage, site: lung, lesion: adenocarcinoma, dosed 52 weeks, study length 144 weeks) was found to be 9.29 mg/kg/day; the TD50 (mouse, strain Swiss albino, females, by gavage, site: lung, lesion: adenoma, dosed 52 weeks, study length 144 weeks) is 5.64 mg/kg/day; the TD50 (mouse, strain Swiss albino, females, by gavage, site: lung, lesion: several types, types named in the paper, dosed 52 weeks, study length 144 weeks) was 3.12 mg/kg/day; the TD50 (mouse, strain Swiss albino, males, by gavage, site: liver, lesion: hepatoma, dosed 52 weeks, study length 134 weeks) was 33.1 mg/kg/day; the TD50 (mouse, strain Swiss albino, males, by gavage, site: lung, lesion: adenocarcinoma, dosed 52 weeks, study length 134 weeks) is 11 mg/kg/day. Besides, the TD50 is, setting by setting: (mouse, strain Swiss albino, males, by gavage, site: lung, lesion: adenoma, dosed 52 weeks, study length 134 weeks) 5.52 mg/kg/day; (mouse, strain Swiss albino, males, by gavage, site: lung, lesion: several types, types named in the paper, dosed 52 weeks, study length 134 weeks) 3.79 mg/kg/day; (mouse, strain Swiss albino, males, by gavage, site: preputial gland, lesion: several types, types named in the paper, dosed 52 weeks, study length 134 weeks) 16.2 mg/kg/day; (mouse, strain Swiss albino, males, by gavage, site: preputial gland, lesion: squamous-cell carcinoma, dosed 52 weeks, study length 134 weeks) 19.8 mg/kg/day; (mouse, strain Swiss albino, males, by gavage, site: preputial gland, lesion: squamous-cell papilloma, dosed 52 weeks, study length 134 weeks) 106 mg/kg/day.
`O=S(=O)(O)c1ccc2c(N=Nc3ccc(S(=O)(=O)O)c4ccccc34)c(O)c(S(=O)(=O)O)cc2c1`: the TD50 (rat, strain Mongrel, both sexes, in feed, site: any site (literature study), lesion: several types, types named in the paper, dosed 108 weeks, study length 108 weeks) was 632 mg/kg/day; the TD50 (rat, strain Non-inbred, both sexes, in feed, site: any site (literature study), lesion: several types, types named in the paper, dosed 143 weeks, study length 143 weeks) is 3320 mg/kg/day; the TD50 (rat, strain Non-inbred, both sexes, in feed, site: liver, lesion: hepatoma, dosed 143 weeks, study length 143 weeks) is 49500 mg/kg/day; the TD50 (rat, strain Not specified, females, in feed, site: any site (literature study), lesion: several types, types named in the paper, dosed 64 weeks, study length 64 weeks) is 1640 mg/kg/day (inactive); the TD50 (rat, strain Wistar, both sexes, in feed, site: abdomen, lesion: malignant lymphoma, dosed 91 weeks, study length 91 weeks) is 6130 mg/kg/day. In addition, the carcinogen call by setting is: (rat, strain Not specified, females, in feed, site: liver, lesion: one or several types, types not named, dosed 64 weeks, study length 64 weeks) “negative (inactive)”; (rat, strain Not specified, males, in feed, site: any site (literature study), lesion: several types, types named in the paper, dosed 64 weeks, study length 64 weeks) “negative (inactive)”; (rat, strain Not specified, males, in feed, site: liver, lesion: one or several types, types not named, dosed 64 weeks, study length 64 weeks) “negative (inactive)”; (rat, strain Sprague-Dawley, females, in feed, site: any site (literature study), lesion: one or several types, types not named, dosed 52 weeks, study length 52 weeks) “negative (inactive)”; (rat, strain Sprague-Dawley, females, in feed, site: liver, lesion: one or several types, types not named, dosed 52 weeks, study length 52 weeks) “negative (inactive)”.
On to `COc1cc(-c2ccc(N=C=O)c(OC)c2)ccc1N=C=O`, for which the TD50 reads like this: (mouse, strain B6C3F1, females, in feed, site: any site (literature study), lesion: several types, types named in the paper, dosed 78 weeks, study length 103 weeks) 32800 mg/kg/day (inactive); (mouse, strain B6C3F1, males, in feed, site: any site (literature study), lesion: several types, types named in the paper, dosed 78 weeks, study length 103 weeks) 24000 mg/kg/day (inactive); (mouse, strain B6C3F1, males, in feed, site: liver, lesion: hepatocellular adenoma + hepatocellular carcinoma + neoplastic nodule, dosed 78 weeks, study length 103 weeks) 12100 mg/kg/day; (mouse, strain B6C3F1, males, in feed, site: lung, lesion: alveolar/bronchiolar adenoma + alveolar/bronchiolar carcinoma, dosed 78 weeks, study length 103 weeks) 87900 mg/kg/day; (rat, strain Fischer 344, females, oral dosing, site: all sites + uterus, lesion: leukemia + lymphoma + endometrial stromal polyp, dosed 78 weeks, study length 104 weeks) 1450 mg/kg/day; (rat, strain Fischer 344, females, oral dosing, site: all sites, lesion: leukemia + lymphoma, dosed 78 weeks, study length 104 weeks) 2280 mg/kg/day. In addition, the TD50 by setting is: (rat, strain Fischer 344, females, oral dosing, site: any site (literature study), lesion: several types, types named in the paper, dosed 78 weeks, study length 104 weeks) 773 mg/kg/day; (rat, strain Fischer 344, females, oral dosing, site: ear + Zymbal's gland, lesion: sebaceous adenocarcinoma + squamous-cell carcinoma + trichoepithelioma, dosed 78 weeks, study length 104 weeks) 2590 mg/kg/day; (rat, strain Fischer 344, females, oral dosing, site: liver, lesion: hepatocellular adenoma + hepatocellular carcinoma + neoplastic nodule, dosed 78 weeks, study length 104 weeks) 17100 mg/kg/day; (rat, strain Fischer 344, females, oral dosing, site: uterus, lesion: endometrial stromal polyp, dosed 78 weeks, study length 104 weeks) 2740 mg/kg/day; (rat, strain Fischer 344, males, oral dosing, site: all sites + skin of foot and toe + skin of back + skin of flank + skin, lesion: leukemia + lymphoma + keratoacanthoma + basal-cell tumor + papilloma, NOS + sebaceous adenoma + sebaceous adenoma and adenocarcinoma, dosed 78 weeks, study length 104 weeks) 742 mg/kg/day; (rat, strain Fischer 344, males, oral dosing, site: all sites, lesion: leukemia + lymphoma, dosed 78 weeks, study length 104 weeks) 1270 mg/kg/day. Besides, the TD50 (rat, strain Fischer 344, males, oral dosing, site: any site (literature study), lesion: several types, types named in the paper, dosed 78 weeks, study length 104 weeks) was found to be 809 mg/kg/day; the TD50 (rat, strain Fischer 344, males, oral dosing, site: ear + Zymbal's gland, lesion: squamous-cell carcinoma, dosed 78 weeks, study length 104 weeks) is 7010 mg/kg/day; the TD50 (rat, strain Fischer 344, males, oral dosing, site: liver, lesion: hepatocellular adenoma + hepatocellular carcinoma + neoplastic nodule, dosed 78 weeks, study length 104 weeks) is 6600 mg/kg/day; the TD50 (rat, strain Fischer 344, males, oral dosing, site: skin of foot and toe + skin of back + skin of flank + skin, lesion: keratoacanthoma + basal-cell tumor + papilloma, NOS + sebaceous adenoma + trichoepithelioma, dosed 78 weeks, study length 104 weeks) is 1770 mg/kg/day; the TD50 (rat, strain Fischer 344, males, oral dosing, site: skin of foot and toe + skin of back + skin of flank + skin, lesion: keratoacanthoma + basal-cell tumor + papilloma, NOS + sebaceous adenoma and adenocarcinoma + squamous-cell carcinoma + trichoepith, dosed 78 weeks, study length 104 weeks) was 1330 mg/kg/day.
In the case of `C[C@]12CC[C@@H]3c4ccc(OC(=O)Cc5ccc(N(CCCl)CCCl)cc5)cc4CC[C@H]3[C@@H]1CC[C@@H]2OC(=O)Cc1ccc(N(CCCl)CCCl)cc1`, the TD50 is 0.682 mg/kg/day (mouse, strain B6C3F1, females, by gavage, site: all sites + lung + myocardium + stomach, lesion: lymphoma + alveolar/bronchiolar adenoma + alveolar/bronchiolar carcinoma + sarcoma, NOS + squamous-cell carcinoma, dosed 52 weeks, study length 84 weeks); 2.23 mg/kg/day (mouse, strain B6C3F1, females, by gavage, site: all sites, lesion: lymphoma, dosed 52 weeks, study length 82 weeks); 2.34 mg/kg/day (mouse, strain B6C3F1, females, by gavage, site: all sites, lesion: lymphoma, dosed 52 weeks, study length 84 weeks); 0.562 mg/kg/day (mouse, strain B6C3F1, females, by gavage, site: any site (literature study), lesion: several types, types named in the paper, dosed 52 weeks, study length 84 weeks); 1.28 mg/kg/day (mouse, strain B6C3F1, females, by gavage, site: lung, lesion: alveolar/bronchiolar adenoma + alveolar/bronchiolar carcinoma, dosed 52 weeks, study length 82 weeks); 1.14 mg/kg/day (mouse, strain B6C3F1, females, by gavage, site: lung, lesion: alveolar/bronchiolar adenoma + alveolar/bronchiolar carcinoma, dosed 52 weeks, study length 84 weeks). Further, the TD50 reads like this: (mouse, strain B6C3F1, females, by gavage, site: lung, lesion: alveolar/bronchiolar carcinoma, dosed 52 weeks, study length 82 weeks) 2.87 mg/kg/day; (mouse, strain B6C3F1, females, by gavage, site: mammary gland, lesion: adenocarcinoma, NOS + carcinoma, NOS, dosed 52 weeks, study length 82 weeks) 12.8 mg/kg/day; (mouse, strain B6C3F1, females, by gavage, site: mammary gland, lesion: adenocarcinoma, NOS + carcinoma, NOS, dosed 52 weeks, study length 84 weeks) 13.4 mg/kg/day; (mouse, strain B6C3F1, females, by gavage, site: myocardium, lesion: sarcoma, NOS, dosed 52 weeks, study length 82 weeks) 3.22 mg/kg/day; (mouse, strain B6C3F1, females, by gavage, site: myocardium, lesion: sarcoma, NOS, dosed 52 weeks, study length 84 weeks) 3.01 mg/kg/day; (mouse, strain B6C3F1, females, by gavage, site: stomach, lesion: squamous-cell carcinoma, dosed 52 weeks, study length 84 weeks) 5.17 mg/kg/day. Besides, the TD50 (mouse, strain B6C3F1, males, by gavage, site: all sites + stomach, lesion: leukemia + lymphoma + squamous-cell carcinoma, dosed 52 weeks, study length 83 weeks) was found to be 4.1 mg/kg/day; the TD50 (mouse, strain B6C3F1, males, by gavage, site: all sites, lesion: leukemia + lymphoma, dosed 52 weeks, study length 81 weeks) is 4.31 mg/kg/day; the TD50 (mouse, strain B6C3F1, males, by gavage, site: all sites, lesion: leukemia + lymphoma, dosed 52 weeks, study length 83 weeks) was 4.39 mg/kg/day; the TD50 (mouse, strain B6C3F1, males, by gavage, site: any site (literature study), lesion: several types, types named in the paper, dosed 52 weeks, study length 83 weeks) was found to be 1.96 mg/kg/day; the TD50 (mouse, strain B6C3F1, males, by gavage, site: lung, lesion: alveolar/bronchiolar adenoma + alveolar/bronchiolar carcinoma, dosed 52 weeks, study length 81 weeks) is 1.99 mg/kg/day; the TD50 (mouse, strain B6C3F1, males, by gavage, site: lung, lesion: alveolar/bronchiolar adenoma + alveolar/bronchiolar carcinoma, dosed 52 weeks, study length 83 weeks) came out at 2.34 mg/kg/day. In addition, the TD50 by setting is: (mouse, strain B6C3F1, males, by gavage, site: lung, lesion: alveolar/bronchiolar carcinoma, dosed 52 weeks, study length 81 weeks) 3.61 mg/kg/day; (mouse, strain B6C3F1, males, by gavage, site: myocardium, lesion: sarcoma, NOS, dosed 52 weeks, study length 81 weeks) 5.55 mg/kg/day; (mouse, strain B6C3F1, males, by gavage, site: stomach, lesion: squamous-cell carcinoma, dosed 52 weeks, study length 83 weeks) 29 mg/kg/day; (rat, strain Sprague-Dawley, females, by gavage, site: any site (literature study), lesion: several types, types named in the paper, dosed 52 weeks, study length 85 weeks) 0.189 mg/kg/day (inactive); (rat, strain Sprague-Dawley, males, by gavage, site: any site (literature study), lesion: several types, types named in the paper, dosed 52 weeks, study length 85 weeks) 3.85 mg/kg/day (inactive); (rat, strain Sprague-Dawley, males, by gavage, site: mammary gland, lesion: fibroadenoma, dosed 52 weeks, study length 85 weeks) 0.756 mg/kg/day (inactive).
Turning to `CC(=O)CN(C)N=O`, the TD50 (rat, strain MRC, females, by gavage, site: esophagus, lesion: several types, types named in the paper, dosed 67 weeks, study length 76 weeks) is 0.16 mg/kg/day; the TD50 (rat, strain MRC, females, by gavage, site: liver, lesion: several types, types named in the paper, dosed 67 weeks, study length 76 weeks) is 0.268 mg/kg/day; the TD50 (rat, strain MRC, females, by gavage, site: nasal and paranasal cavity, lesion: several types, types named in the paper, dosed 67 weeks, study length 76 weeks) is 0.0167 mg/kg/day; the TD50 (rat, strain MRC, females, by gavage, site: pharynx, lesion: several types, types named in the paper, dosed 67 weeks, study length 76 weeks) was 0.0758 mg/kg/day; the TD50 (rat, strain MRC, males, by gavage, site: esophagus, lesion: several types, types named in the paper, dosed 51 weeks, study length 58 weeks) is 0.0642 mg/kg/day; the TD50 (rat, strain MRC, males, by gavage, site: liver, lesion: several types, types named in the paper, dosed 51 weeks, study length 58 weeks) is 0.252 mg/kg/day. The TD50 (rat, strain MRC, males, by gavage, site: nasal and paranasal cavity, lesion: several types, types named in the paper, dosed 51 weeks, study length 58 weeks) was 0.0178 mg/kg/day; the TD50 (rat, strain MRC, males, by gavage, site: nasopharynx, lesion: papilloma, dosed 51 weeks, study length 58 weeks) was found to be 0.942 mg/kg/day; the TD50 (rat, strain MRC, males, by gavage, site: pharynx, lesion: several types, types named in the paper, dosed 51 weeks, study length 58 weeks) is 0.023 mg/kg/day.

(Values after PubChem BioAssay AID1745844 (Carcinogenic Potency Database (CPDB), 2022).)
